The results in this text go back to ChEMBL document CHEMBL3526076, “Species-dependent and receptor-selective action of bilobalide on the function of constitutive androstane receptor and pregnane X receptor” (Drug Metab Dispos, 2012).

Molecules are shown by their SMILES.

For series [1], the target named is T1, Nuclear receptor subfamily 1 group I member 3 (Homo sapiens, UniProt Q14994).
T1 sequence (Q14994 whole entry): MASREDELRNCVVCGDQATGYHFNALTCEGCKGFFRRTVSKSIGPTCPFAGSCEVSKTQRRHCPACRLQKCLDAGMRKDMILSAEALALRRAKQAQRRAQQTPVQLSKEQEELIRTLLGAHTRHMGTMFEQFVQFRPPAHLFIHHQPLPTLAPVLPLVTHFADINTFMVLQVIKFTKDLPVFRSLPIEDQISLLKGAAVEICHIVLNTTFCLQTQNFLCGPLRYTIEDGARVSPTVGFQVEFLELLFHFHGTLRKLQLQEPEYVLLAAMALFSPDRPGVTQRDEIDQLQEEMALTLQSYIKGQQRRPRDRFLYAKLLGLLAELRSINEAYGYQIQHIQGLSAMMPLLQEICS
As to the kind of experiment: Activation of human CAR expressed in human HepG2 cells coexpressing CYP2B6 at 10 uM after 24 hrs by dual luciferase reporter gene assay. It is filed as ADME, cell-based. The note with it: hepg2, 24 h.

Series [2] deals with T2, Nuclear receptor subfamily 1 group I member 3 (Rattus norvegicus, UniProt Q9QUS1).
T2 sequence (Q9QUS1 whole entry): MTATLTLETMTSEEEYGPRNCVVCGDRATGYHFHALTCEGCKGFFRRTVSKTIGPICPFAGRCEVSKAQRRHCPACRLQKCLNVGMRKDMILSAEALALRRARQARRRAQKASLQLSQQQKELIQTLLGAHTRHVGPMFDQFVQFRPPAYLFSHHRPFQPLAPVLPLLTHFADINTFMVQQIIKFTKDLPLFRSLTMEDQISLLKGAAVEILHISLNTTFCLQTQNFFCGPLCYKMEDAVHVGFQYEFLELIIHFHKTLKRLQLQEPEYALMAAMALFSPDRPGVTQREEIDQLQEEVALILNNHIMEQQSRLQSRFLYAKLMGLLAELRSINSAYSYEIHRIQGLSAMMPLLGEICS
Put plainly: Activation of rat CAR expressed in rat hepatocytes coexpressing CYP2B1 at 1 uM after 24 hrs by dual luciferase reporter gene assay. It is filed as ADME, cell-based, Hepatocyte.

Series [3] concerns the target T1, Nuclear receptor subfamily 1 group I member 3. As to the kind of experiment: Activation of human CAR expressed in human HepG2 cells coexpressing CYP2B6 at 0.25 uM after 24 hrs by dual luciferase reporter gene assay. It counts as ADME, cell-based. The note with it: hepg2, 24 h.
Series [4] shares this target. As to the kind of experiment: Activation of human CAR expressed in rat hepatocytes coexpressing CYP2B1 at 1 uM after 24 hrs by dual luciferase reporter gene assay. It counts as ADME, cell-based, Hepatocyte.
The target of series [5] is T3, Nuclear receptor subfamily 1 group I member 2 (Homo sapiens, UniProt O75469).
T3 sequence (O75469 whole entry): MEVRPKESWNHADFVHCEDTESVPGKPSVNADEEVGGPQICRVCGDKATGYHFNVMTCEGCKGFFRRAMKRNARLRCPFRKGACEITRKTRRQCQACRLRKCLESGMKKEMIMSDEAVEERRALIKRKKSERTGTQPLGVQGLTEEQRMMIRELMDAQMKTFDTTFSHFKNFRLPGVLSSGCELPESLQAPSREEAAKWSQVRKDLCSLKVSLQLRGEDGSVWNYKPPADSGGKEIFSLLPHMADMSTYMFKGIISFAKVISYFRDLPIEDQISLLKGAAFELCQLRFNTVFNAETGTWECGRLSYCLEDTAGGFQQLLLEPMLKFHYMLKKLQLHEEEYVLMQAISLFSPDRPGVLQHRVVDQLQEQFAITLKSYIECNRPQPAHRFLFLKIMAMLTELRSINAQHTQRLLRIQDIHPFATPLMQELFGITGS
As to the kind of experiment: Antagonist activity at human PXR expressed in human HepG2 cells coexpressing CYP3A4 assessed as inhibition of rifampicin-induced receptor activation at 30 uM after 24 hrs by dual luciferase reporter gene assay. It is filed as ADME, cell-based. The conditions noted are these: hepg2, 24 h.

For series [6], the target named is T4, Nuclear receptor subfamily 1 group I member 2 (Rattus norvegicus, UniProt Q9R1A7).
T4 sequence (Q9R1A7 whole entry): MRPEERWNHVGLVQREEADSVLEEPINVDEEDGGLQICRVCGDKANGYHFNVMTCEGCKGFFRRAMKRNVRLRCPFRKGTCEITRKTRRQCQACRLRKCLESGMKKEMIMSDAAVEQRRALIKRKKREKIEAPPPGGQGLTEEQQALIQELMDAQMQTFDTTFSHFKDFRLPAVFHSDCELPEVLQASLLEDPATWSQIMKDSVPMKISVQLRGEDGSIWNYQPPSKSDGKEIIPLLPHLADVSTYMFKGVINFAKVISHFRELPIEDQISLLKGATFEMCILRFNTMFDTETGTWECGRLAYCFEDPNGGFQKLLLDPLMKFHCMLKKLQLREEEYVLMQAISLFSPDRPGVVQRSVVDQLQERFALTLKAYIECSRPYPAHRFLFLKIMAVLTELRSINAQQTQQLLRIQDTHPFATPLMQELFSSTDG
Put plainly: Antagonist activity at rat PXR expressed in human HepG2 cells coexpressing CYP3A4 assessed as inhibition of PCN-induced receptor activation at 30 uM after 24 hrs by dual luciferase reporter gene assay. It counts as ADME, cell-based. The note with it: hepg2, 24 h.

Series [7] concerns the target T5, CYP2B activity (CAR activation) (Rattus norvegicus, UniProt Q9QUS1).
T5 sequence (Q9QUS1 whole entry): T2 sequence (Q9QUS1 whole entry)
As to the kind of experiment: Activation of CAR in rat hepatocytes assessed as increase in CYP2B-mediated benzyloxyresorufin O-dealkylation at 100 uM after 24 hrs by spectrofluorometric analysis relative to control. It is filed as ADME, cell-based, Hepatocyte. The note with it: probe benzyloxyresorufin (O-dealkylation), read-out: FC.

Series [8] deals with T6, CYP2B1 mRNA (CAR activation) (Rattus norvegicus, UniProt Q9QUS1).
T6 sequence (Q9QUS1 whole entry): T2 sequence (Q9QUS1 whole entry)
Put plainly: Activation of CAR in rat hepatocytes assessed as upregulation of CYP2B1 mRNA expression at 100 uM after 24 hrs by RT-PCR analysis relative to control. The conditions noted are these: read-out: FC. It is filed as ADME, cell-based, Hepatocyte.

For a further series, the target named is T7, CAR (CYP2B1 reporter) (Rattus norvegicus, UniProt Q9QUS1).
T7 sequence (Q9QUS1 whole entry): T2 sequence (Q9QUS1 whole entry)
Put plainly: Activation of rat CAR expressed in rat hepatocytes coexpressing CYP2B1 at 100 uM after 24 hrs by dual luciferase reporter gene assay relative to control. It is filed as ADME, cell-based, Hepatocyte. The conditions noted are these: rat hepatocytes expressing rat CAR and coexpressing CYP2B1, read-out: FC.

Series [9] addresses T3, Nuclear receptor subfamily 1 group I member 2. As to the kind of experiment: Activation of human PXR expressed in human HepG2 cells coexpressing CYP3A4 at 10 uM after 24 hrs by dual luciferase reporter gene assay relative to control. The note with it: hepg2, 24 h.
Series [10] has as its target T8, PXR (CYP3A4 reporter) (Rattus norvegicus, UniProt Q9R1A7).
T8 sequence (Q9R1A7 whole entry): T4 sequence (Q9R1A7 whole entry)
Put plainly: Activation of rat PXR expressed in human HepG2 cells coexpressing CYP3A4 at 0.1 to 10 uM after 24 hrs by dual luciferase reporter gene assay relative to control. The conditions noted are these: human HepG2 cells expressing rat PXR and coexpressing CYP3A4.

Series [11] has as its target T8, PXR (CYP3A4 reporter). As to the kind of experiment: Activation of rat PXR expressed in rat hepatocytes coexpressing CYP3A4 at 10 uM after 24 hrs by dual luciferase reporter gene assay relative to control. The note with it: rat hepatocytes expressing rat PXR and coexpressing CYP3A4.
Series [12] deals with T3, Nuclear receptor subfamily 1 group I member 2. Put plainly: Activation of human PXR expressed in rat hepatocytes coexpressing CYP3A4 at 10 uM after 24 hrs by dual luciferase reporter gene assay relative to control.

For `Clc1ccc(-c2nc3sccn3c2/C=N/OCc2ccc(Cl)c(Cl)c2)cc1`, the Activity result in [1] was “Active”; in series [2], “Not Active”.

For `Clc1cnc(Oc2ccc(Oc3ncc(Cl)cc3Cl)cc2)c(Cl)c1`, the Activity entry in series [3] and in series [4] was “Not Active” each time.

For the compound `CC(=O)N1CCN(c2ccc(OCC3COC(Cn4ccnc4)(c4ccc(Cl)cc4Cl)O3)cc2)CC1` (stereo not drawn) [KETOCONAZOLE], the “inhibition (INH)” value in series [5] and in [6] was “Active” each time.

Consider `CCC1(c2ccccc2)C(=O)NC(=O)NC1=O` [PHENOBARBITAL SODIUM], for which the fold induction at 24 h, 100 µM in [7] came to 12; in [8] it was 48; at CAR (CYP2B1 reporter) it was 9.

Regarding `CC(=O)[C@H]1[C@H](C#N)C[C@H]2[C@@H]3CC=C4C[C@@H](O)CC[C@]4(C)[C@H]3CC[C@@]21C` [PREGNENOLONE CARBONITRILE], the Activity result in series [9] and in [12] was “Not Active” each time. For the same compound, the fold induction at 24 h, 10 µM at PXR (CYP3A4 reporter) [10] stood at 19; on PXR (CYP3A4 reporter) [11], 9.
